For 18 substances, 3 h FOB score results are on record in the OligoGym collection.

HELM strings list units from the 5' end as sugar, base in round brackets, then linkage (d deoxyribose, r ribose, m 2'-O-methyl, p phosphodiester). Strings are as the collection lists them; they lack the last nucleoside at the 3' end of the tested compound. [moe] = 2'-O-(2-methoxyethyl) (MOE); [sp] = phosphorothioate linkage; [m5C] = 5-methylcytosine

The target of the series is GFAP. Put plainly: mouse, dose not given. The conditions noted are these: ASO.
“RNA1{[moe](A)[sp].[moe](A)p.[moe](A)p.[moe](G)p.[moe](G)p.[moe]([m5C])p.d(A)[sp].d([m5C])[sp].d(A)[sp].d(G)[sp].d(T)[sp].d(T)[sp].d([m5C])[sp].d([m5C])[sp].d([m5C])[sp].d(A)[sp].[moe](G)p.[moe](A)[sp].[moe](T)}$$$$ (last 3' nucleoside missing)” had a 3 h FOB score of 2 score 0-7.

In the case of “RNA1{[moe](A)[sp].[moe](A)p.[moe](A)p.[moe](G)p.[moe](G)p.d([m5C])[sp].d(A)[sp].d([m5C])[sp].d(A)[sp].d(G)[sp].d(T)[sp].d(T)[sp].d([m5C])[sp].d([m5C])[sp].d([m5C])[sp].[moe](A)p.[moe](G)p.[moe](A)[sp].[moe](T)}$$$$ (last 3' nucleoside missing)”, the 3 h FOB score turned out to be 2 score 0-7.

On to “RNA1{[moe](A)[sp].[moe](A)p.[moe](G)p.[moe](G)p.[moe]([m5C])p.[moe](A)p.d([m5C])[sp].d(A)[sp].d(G)[sp].d(T)[sp].d(T)[sp].d([m5C])[sp].d([m5C])[sp].d([m5C])[sp].d(A)[sp].d(G)[sp].[moe](A)p.[moe](T)[sp].[moe](A)}$$$$ (last 3' nucleoside missing)”, for which the 3 h FOB score was found to be 2 score 0-7.

Substance “RNA1{[moe](A)[sp].[moe](A)p.[moe](G)p.[moe]([m5C])p.[moe](T)[sp].d([m5C])[sp].d(T)[sp].d(G)[sp].d(A)[sp].d(G)[sp].d([m5C])[sp].d(T)[sp].d(G)[sp].d(T)[sp].d(G)[sp].[moe](G)p.[moe](T)p.[moe](G)[sp].[moe](T)}$$$$ (last 3' nucleoside missing)” showed a 3 h FOB score of 4 score 0-7.

Substance “RNA1{[moe](A)[sp].[moe](A)p.[moe](T)p.[moe]([m5C])p.[moe](A)[sp].d(A)[sp].d(G)[sp].d([m5C])[sp].d(T)[sp].d([m5C])[sp].d([m5C])[sp].d([m5C])[sp].d(A)[sp].d([m5C])[sp].d([m5C])[sp].[moe](T)p.[moe](G)p.[moe]([m5C])[sp].[moe]([m5C])}$$$$ (last 3' nucleoside missing)” gave a 3 h FOB score of 0 score 0-7.

In turn, “RNA1{[moe](A)[sp].[moe](A)p.[moe](T)p.[moe]([m5C])p.[moe](A)[sp].d(T)[sp].d(T)[sp].d(T)[sp].d([m5C])[sp].d(A)[sp].d(G)[sp].d(G)[sp].d(G)[sp].d([m5C])[sp].d([m5C])[sp].[moe](A)p.[moe](A)p.[moe](T)[sp].[moe](G)}$$$$ (last 3' nucleoside missing)” had a 3 h FOB score of 5 score 0-7.

“RNA1{[moe](A)[sp].[moe](G)p.[moe](A)p.[moe](G)p.[moe](A)[sp].d(T)[sp].d(G)[sp].d(G)[sp].d(G)[sp].d(T)[sp].d(G)[sp].d(A)[sp].d(G)[sp].d(G)[sp].d(T)[sp].[moe](G)p.[moe](A)p.[moe](G)[sp].[moe](G)}$$$$ (last 3' nucleoside missing)” came in with a 3 h FOB score of 7 score 0-7.

The substance “RNA1{[moe](A)[sp].[moe](G)p.[moe](A)p.[moe](G)p.[moe](T)[sp].d(G)[sp].d(T)[sp].d(G)[sp].d(T)[sp].d(A)[sp].d(T)[sp].d(T)[sp].d(A)[sp].d(G)[sp].d(G)[sp].[moe](A)p.[moe](T)p.[moe]([m5C])[sp].[moe]([m5C])}$$$$ (last 3' nucleoside missing)” gave a 3 h FOB score of 5 score 0-7.

Substance “RNA1{[moe](A)[sp].[moe](G)p.[moe](A)p.[moe](G)p.d(T)[sp].d(G)[sp].d(T)[sp].d(G)[sp].d(T)[sp].d(A)[sp].d(T)[sp].d(T)[sp].d(A)[sp].d(G)[sp].[moe](G)p.[moe](A)p.[moe](T)p.[moe]([m5C])[sp].[moe]([m5C])}$$$$ (last 3' nucleoside missing)” registered a 3 h FOB score of 5 score 0-7.

Regarding “RNA1{[moe](A)[sp].[moe](G)p.[moe](A)p.[moe](T)p.[moe](A)[sp].d(T)[sp].d([m5C])[sp].d(T)[sp].d(T)[sp].d(G)[sp].d(T)[sp].d(G)[sp].d(A)[sp].d([m5C])[sp].d([m5C])[sp].[moe](T)p.[moe](T)p.[moe](G)[sp].[moe](T)}$$$$ (last 3' nucleoside missing)”, the 3 h FOB score is 6 score 0-7.

For “RNA1{[moe](A)[sp].[moe](G)p.[moe](G)p.[moe](G)p.[moe](T)[sp].d(G)[sp].d(G)[sp].d([m5C])[sp].d(T)[sp].d(T)[sp].d([m5C])[sp].d(A)[sp].d(T)[sp].d([m5C])[sp].d(T)[sp].[moe](G)p.[moe]([m5C])p.[moe](T)[sp].[moe](T)}$$$$ (last 3' nucleoside missing)”, the 3 h FOB score is 2 score 0-7.

As for “RNA1{[moe](A)[sp].[moe](G)p.[moe](G)p.[moe]([m5C])p.[moe](A)p.[moe]([m5C])p.d(A)[sp].d(G)[sp].d(T)[sp].d(T)[sp].d([m5C])[sp].d([m5C])[sp].d([m5C])[sp].d(A)[sp].d(G)[sp].d(A)[sp].[moe](T)p.[moe](A)[sp].[moe]([m5C])}$$$$ (last 3' nucleoside missing)”, the 3 h FOB score was 1 score 0-7.

“RNA1{[moe](A)[sp].[moe](G)p.[moe](G)p.[moe]([m5C])p.[moe](T)[sp].d(T)[sp].d(T)[sp].d(T)[sp].d(G)[sp].d(A)[sp].d(G)[sp].d(A)[sp].d(T)[sp].d(A)[sp].d(T)[sp].[moe]([m5C])p.[moe](T)p.[moe](T)[sp].[moe](G)}$$$$ (last 3' nucleoside missing)” displayed a 3 h FOB score of 6 score 0-7.

In turn, “RNA1{[moe](A)[sp].[moe](G)p.[moe](T)p.[moe](A)p.[moe](T)[sp].d(T)[sp].d(A)[sp].d([m5C])[sp].d([m5C])[sp].d(T)[sp].d([m5C])[sp].d(T)[sp].d(A)[sp].[moe]([m5C])p.[moe](T)p.[moe](A)[sp].[moe](G)}$$$$ (last 3' nucleoside missing)” yielded a 3 h FOB score of 3 score 0-7.

Substance “RNA1{[moe](A)[sp].[moe](G)p.[moe](T)p.[moe](G)p.[moe](A)[sp].d([m5C])[sp].d([m5C])[sp].d(T)[sp].d(G)[sp].d(T)[sp].d(G)[sp].d(A)[sp].d([m5C])[sp].d(T)[sp].d(A)[sp].[moe](T)p.[moe]([m5C])p.[moe](T)[sp].[moe](A)}$$$$ (last 3' nucleoside missing)” registered a 3 h FOB score of 6 score 0-7.

In turn, “RNA1{[moe](A)[sp].[moe](G)p.[moe](T)p.[moe](G)p.[moe](T)[sp].d(G)[sp].d(T)[sp].d(A)[sp].d(T)[sp].d(T)[sp].d(A)[sp].d(G)[sp].d(G)[sp].d(A)[sp].d(T)[sp].[moe]([m5C])p.[moe]([m5C])p.[moe]([m5C])[sp].[moe](A)}$$$$ (last 3' nucleoside missing)” had a 3 h FOB score of 5 score 0-7.

The substance “RNA1{[moe](A)[sp].[moe](G)p.[moe](T)p.[moe](G)p.[moe](T)p.[moe](G)p.d(T)[sp].d(A)[sp].d(T)[sp].d(T)[sp].d(A)[sp].d(G)[sp].d(G)[sp].d(A)[sp].d(T)[sp].d([m5C])[sp].[moe]([m5C])p.[moe]([m5C])[sp].[moe](A)}$$$$ (last 3' nucleoside missing)” showed a 3 h FOB score of 4 score 0-7.

The substance “RNA1{[moe](A)[sp].[moe](G)p.[moe](T)p.[moe](G)p.d(T)[sp].d(G)[sp].d(T)[sp].d(A)[sp].d(T)[sp].d(T)[sp].d(A)[sp].d(G)[sp].d(G)[sp].d(A)[sp].[moe](T)p.[moe]([m5C])p.[moe]([m5C])p.[moe]([m5C])[sp].[moe](A)}$$$$ (last 3' nucleoside missing)” showed a 3 h FOB score of 5 score 0-7.
